The values below are quoted from earlier work in patent publication US9585850B2, “Methods of treatment using arylcyclopropylamine compounds” (Duke University, priority 2011, dated 2017).

SMILES strings stand for the structures.

This data set deals with DDD mice. Particulars: Sotnikova et al.
As for `N[C@@H](Cc1ccc(O)c(O)c1)C(=O)O` [L-DOPA, L-3,4-dihydroxyphenylalanine], the “restoration of locomotion / treatment of akinesia in DDD mice” value is given as “fully restored locomotion”.
As to `CN1CCc2cccc3c2[C@H]1Cc1ccc(O)c(O)c1-3` [apomorphine], the “restoration of locomotion / treatment of akinesia in DDD mice” value was “effective in treating akinesia”.
Regarding `CCCN1C[C@H](CSC)C[C@@H]2c3cccc4[nH]cc(c34)C[C@H]21` [pergolide], the “restoration of locomotion / treatment of akinesia in DDD mice” value was “effective in treating akinesia”.
